Results on 26 compounds are retold here after ChEMBL document CHEMBL4837250, “Discovery of LYC-55716: A Potent, Selective, and Orally Bioavailable Retinoic Acid Receptor-Related Orphan Receptor-γ (RORγ) Agonist for Use in Treating Cancer” (J Med Chem, 2021).

Values after ≈ are worked out from the molar mass of the structure shown. A value given as a limit tells only on which side of the number the result lay.

For data set [1], the target named is CYP2D6 (Homo sapiens, UniProt P10635). Kind of data set: in vitro. The following applies: probe testosterone.
Description: Inhibition of CYP2D6 (unknown origin) assessed as oxidation of testosterone at 10 uM
The target of data set [2] is T1, Nuclear receptor subfamily 1 group I member 2 (Homo sapiens, UniProt O75469).
T1 sequence (O75469 whole entry): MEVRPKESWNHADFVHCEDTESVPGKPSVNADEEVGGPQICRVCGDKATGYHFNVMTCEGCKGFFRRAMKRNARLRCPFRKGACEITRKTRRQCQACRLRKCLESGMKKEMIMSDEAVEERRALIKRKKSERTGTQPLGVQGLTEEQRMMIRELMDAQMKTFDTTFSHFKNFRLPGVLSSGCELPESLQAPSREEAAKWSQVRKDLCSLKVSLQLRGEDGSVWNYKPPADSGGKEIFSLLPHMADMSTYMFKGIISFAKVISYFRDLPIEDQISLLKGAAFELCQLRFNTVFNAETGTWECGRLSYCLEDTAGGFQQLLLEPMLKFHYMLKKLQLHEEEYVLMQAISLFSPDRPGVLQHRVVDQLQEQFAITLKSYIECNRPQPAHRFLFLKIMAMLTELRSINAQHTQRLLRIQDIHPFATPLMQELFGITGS
Description: Agonist activity at human PXR-gamma expressed in HEK293 cells assessed as transcriptional activity in presence of ursolic acid by Gal4-luciferase reporter assay

The target in data set [3] is CYP3A4 (Homo sapiens, UniProt P08684). The data set can be described thus: in vitro. The following applies: probe testosterone.
Description: Inhibition of CYP3A4 (unknown origin) assessed as oxidation of testosterone at 10 uM
The target in data set [4] is T2, Nuclear receptor ROR-gamma (Homo sapiens, UniProt P51449).
T2 sequence (P51449 whole entry): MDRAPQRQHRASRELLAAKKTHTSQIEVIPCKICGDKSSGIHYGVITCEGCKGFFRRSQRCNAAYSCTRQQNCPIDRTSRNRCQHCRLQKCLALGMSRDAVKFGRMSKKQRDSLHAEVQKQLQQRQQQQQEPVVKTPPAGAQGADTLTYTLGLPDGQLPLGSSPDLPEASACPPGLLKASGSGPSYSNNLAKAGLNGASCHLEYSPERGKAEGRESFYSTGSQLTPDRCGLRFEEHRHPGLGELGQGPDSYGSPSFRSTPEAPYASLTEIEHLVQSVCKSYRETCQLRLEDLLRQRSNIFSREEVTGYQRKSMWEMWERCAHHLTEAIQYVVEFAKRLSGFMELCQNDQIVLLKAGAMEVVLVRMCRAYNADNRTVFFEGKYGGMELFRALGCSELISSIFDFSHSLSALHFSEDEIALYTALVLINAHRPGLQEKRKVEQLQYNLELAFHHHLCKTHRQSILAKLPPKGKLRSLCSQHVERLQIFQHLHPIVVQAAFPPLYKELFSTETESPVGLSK
Description: Agonist activity at human ROR-gamma LBD expressed in HEK293 cells assessed as transcriptional activity in presence of ursolic acid by Gal4-luciferase reporter assay

A short description of data set [5]: physchem. Particulars: PBS buffer, pH 7.4.
Description: Solubility of the compound in pH 7.4 PBS buffer
Data set [6] concerns the target T2, Nuclear receptor ROR-gamma. The source holds these as a separate data set.
Description: Agonist activity at human His-tagged RORgamma-LBD expressed in Sf9 cells assessed as inhibition of N-terminal biotinylated co-activator SRC1 recruitment in presence of ursolic acid measured after 60 mins by FRET assay
Data set [7] can be described thus: in vitro. Particulars: human, hepatocytes.

Chain of CYP2D6 (P10635 whole entry): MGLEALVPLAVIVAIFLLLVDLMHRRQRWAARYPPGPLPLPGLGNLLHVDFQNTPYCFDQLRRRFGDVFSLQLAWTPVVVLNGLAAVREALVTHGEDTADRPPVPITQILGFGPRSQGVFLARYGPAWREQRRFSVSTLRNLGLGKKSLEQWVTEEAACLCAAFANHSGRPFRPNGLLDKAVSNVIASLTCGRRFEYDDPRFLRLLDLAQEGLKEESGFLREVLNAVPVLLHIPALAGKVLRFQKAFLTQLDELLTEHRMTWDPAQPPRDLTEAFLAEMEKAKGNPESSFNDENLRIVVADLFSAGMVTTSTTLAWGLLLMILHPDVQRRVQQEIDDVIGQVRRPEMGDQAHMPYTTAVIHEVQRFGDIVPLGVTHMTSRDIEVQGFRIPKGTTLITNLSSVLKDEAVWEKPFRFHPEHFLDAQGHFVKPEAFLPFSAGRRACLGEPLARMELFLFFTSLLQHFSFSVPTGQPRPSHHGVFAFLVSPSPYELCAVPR
Chain of CYP3A4 (P08684 whole entry): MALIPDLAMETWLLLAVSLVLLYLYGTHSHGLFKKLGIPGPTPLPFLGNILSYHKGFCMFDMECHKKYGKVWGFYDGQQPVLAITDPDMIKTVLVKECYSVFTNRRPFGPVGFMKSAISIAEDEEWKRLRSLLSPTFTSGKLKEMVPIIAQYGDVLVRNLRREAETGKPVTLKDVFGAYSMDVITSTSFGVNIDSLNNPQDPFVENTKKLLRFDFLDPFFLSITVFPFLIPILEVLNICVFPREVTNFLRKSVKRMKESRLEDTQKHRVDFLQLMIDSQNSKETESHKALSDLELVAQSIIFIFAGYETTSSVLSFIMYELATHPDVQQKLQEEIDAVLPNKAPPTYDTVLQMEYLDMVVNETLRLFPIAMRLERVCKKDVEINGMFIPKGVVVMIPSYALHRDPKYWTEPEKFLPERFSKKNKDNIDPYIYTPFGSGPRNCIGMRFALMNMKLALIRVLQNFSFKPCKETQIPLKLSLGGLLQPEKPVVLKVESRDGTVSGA

For `CC(C)(C[C@H]1CN(S(=O)(=O)c2cccc(C(F)(F)F)c2)c2cc(-c3cccc(Cl)c3F)ccc2O1)C(=O)O`, the values for the inhibition at 10 µM in data set [1] and in data set [3] were 6% and 28.5%, respectively. Further, the EC50 in data set [2] is greater than 10 µM.
For `C/C(=C\c1ccc2c(c1)N(S(=O)(=O)c1cccc(C(F)(F)F)c1)C[C@H](CCC(=O)O)O2)c1ccccc1C(F)(F)F`, the results for the EC50 in data set [4], in data set [2] and in data set [6] were 0.29 µM, greater than 10 µM and 0.108 µM, respectively. This compound also gave a solubility in data set [5] of 260 µM (≈ 156 µg/mL). Further, the inhibition at 10 µM was 2% in data set [1] and 18% in data set [3]. The compound also returned a hepatocyte CLint in data set [7] of 23 µL/min/1e6 cells.
With `C[C@@H](C[C@H]1CN(S(=O)(=O)c2cccc(C(F)(F)F)c2)c2cc(-c3cc(F)ccc3F)ccc2O1)C(=O)O`, the inhibition at 10 µM in data set [1] was determined as 13%; in data set [3], 17%. Also, the EC50 in data set [2] was greater than 10 µM.
Regarding `C/C(=C\c1ccc2c(c1)N(S(=O)(=O)c1cccc(C(F)(F)F)c1)C[C@H](CCC(=O)O)O2)c1c(Cl)cccc1Cl`, the EC50 is 0.487 µM in data set [4], greater than 10 µM in data set [2] and 0.435 µM in data set [6]. The same compound came in with a solubility in data set [5] of 309 µM (≈ 186 µg/mL). For the same compound, the inhibition at 10 µM in data set [1] was -1%; in data set [3], 6%. The same compound displayed a hepatocyte CLint in data set [7] of 23 µL/min/1e6 cells.
In turn, `O=C(O)CC[C@H]1CN(S(=O)(=O)c2cccc(C(F)(F)F)c2)c2cc(-c3cc(F)cc(F)c3)ccc2O1` gave a solubility in data set [5] of 277 µM (≈ 146 µg/mL). The compound further registered an EC50 in data set [2] greater than 10 µM. The inhibition at 10 µM in data set [3] came out at 25%. In addition, in data set [7], the intrinsic metabolic clearance (hepatocyte CLint) was 31 µL/min/1e6 cells.
Take `O=C(O)CC[C@H]1CN(S(=O)(=O)c2cccc(C(F)(F)F)c2)c2cc(-c3cc(F)cc(OC(F)F)c3)ccc2O1`: the inhibition at 10 µM is -6% in data set [1] and 5% in data set [3]. In addition, in data set [2], the EC50 was greater than 10 µM.
In data set [5], `C/C(=C\c1ccc2c(c1)N(S(=O)(=O)c1cccc(C(F)(F)F)c1)C[C@H](CCC(=O)O)O2)c1ccccc1Cl` gave a solubility of 309 µM (≈ 175 µg/mL). The inhibition at 10 µM in data set [1] amounted to 13%; in data set [3] it was 7%. In data set [2], this compound displayed an EC50 greater than 10 µM. The same compound gave a hepatocyte CLint in data set [7] of 22 µL/min/1e6 cells.
Regarding `CC(C)c1ccc(-c2ccc3c(c2)N(S(=O)(=O)c2cccc(C(F)(F)F)c2)C[C@H](CCC(=O)O)O3)cc1`, the results for the EC50 in data set [4], in data set [2] and in data set [6] were greater than 10 µM, greater than 10 µM and 0.042 µM, respectively. The results for the inhibition at 10 µM in data set [1] and in data set [3] were 2% and -4%, respectively. In data set [7], this compound showed a hepatocyte CLint of 31 µL/min/1e6 cells.
On to `C/C(=C\c1ccc2c(c1)N(S(=O)(=O)c1cccc(OC(F)F)c1)C[C@H](CCC(=O)O)O2)c1c(F)cccc1Cl`, for which the EC50 in data set [4] was found to be 0.28 µM; in data set [2] it was 9.1 µM; in data set [6] it was 0.195 µM. The compound also displayed a solubility in data set [5] of 248 µM (≈ 144 µg/mL). Further, the inhibition at 10 µM turned out to be 2% in data set [1] and 9% in data set [3]. In addition, the hepatocyte CLint in data set [7] was found to be 9.4 µL/min/1e6 cells.
On to `C/C(=C\c1ccc2c(c1)N(S(=O)(=O)c1ccc(F)c(C(F)(F)F)c1)C[C@H](CCC(=O)O)O2)c1c(F)cccc1Cl`, for which the concentration giving a half-maximal response (EC50) worked out at 0.411 µM in data set [4], 6 µM in data set [2] and 0.085 µM in data set [6]. Moreover, the concentration in solution in data set [5] (solubility) came to 61 µM (≈ 36.7 µg/mL). Also, the hepatocyte CLint in data set [7] stood at 24 µL/min/1e6 cells.
Consider `C/C(=C\c1ccc2c(c1)N(S(=O)(=O)c1cccc(C(F)(F)F)c1)C[C@H](CCC(=O)O)O2)c1ccccc1`, for which the concentration in solution in data set [5] (solubility) came to 267 µM (≈ 142 µg/mL). Further, the inhibition at 10 µM was 3% in data set [1] and -3% in data set [3]. Further, the EC50 in data set [2] was greater than 10 µM. In addition, the intrinsic clearance (hepatocyte CLint) in data set [7] worked out at 22 µL/min/1e6 cells.
For the compound `O=C(O)CC[C@H]1CN(S(=O)(=O)c2cccc(C(F)(F)F)c2)c2cc(-c3cccc(F)c3)ccc2O1`, the inhibition at 10 µM in data set [1] is 0%; in data set [3], 19%. In data set [2], this compound had an EC50 greater than 10 µM.
In turn, `COc1ccccc1/C(C)=C/c1ccc2c(c1)N(S(=O)(=O)c1cccc(C(F)(F)F)c1)C[C@H](CCC(=O)O)O2` came in with a solubility in data set [5] of 183 µM (≈ 103 µg/mL). Moreover, the values for the inhibition at 10 µM in data set [1] and in data set [3] were 3% and 19%, respectively. In data set [2], this compound yielded an EC50 greater than 10 µM. Moreover, in data set [7], the hepatocyte CLint was determined as 33 µL/min/1e6 cells.
`O=C(O)C1(C[C@H]2CN(S(=O)(=O)c3cccc(C(F)(F)F)c3)c3cc(-c4cc(F)ccc4F)ccc3O2)COC1`: the EC50 in data set [4] was determined as 0.179 µM; in data set [2], 18 µM; in data set [6], 0.01 µM. The compound also registered a solubility in data set [5] of 201 µM (≈ 114 µg/mL).
With `COc1cc(F)cc(-c2ccc3c(c2)N(S(=O)(=O)c2cccc(C(F)(F)F)c2)C[C@H](CCC(=O)O)O3)c1`, the EC50 in data set [2] is greater than 10 µM.
For `O=C(O)[C@H](O)CC[C@H]1CN(S(=O)(=O)c2cccc(C(F)(F)F)c2)c2cc(-c3cc(F)ccc3F)ccc2O1`, the EC50 in data set [4] was 0.166 µM; in data set [2] it was greater than 10 µM; in data set [6], 0.12 µM. Further, the hepatocyte CLint in data set [7] amounted to 13 µL/min/1e6 cells.
On to `C/C(=C\c1ccc2c(c1)N(S(=O)(=O)c1cccc(C(F)(F)F)c1)C[C@H](CCC(=O)O)O2)c1ccccc1C`, for which the figures for the inhibition at 10 µM in data set [1] and in data set [3] were -6% and 0%, respectively.
For `O=C(O)CC[C@H]1CN(S(=O)(=O)c2cccc(C(F)(F)F)c2)c2cc(/C=C/c3ccc(Cl)cc3F)ccc2O1`, the EC50 in data set [4] is greater than 10 µM; in data set [2], greater than 10 µM; in data set [6], 0.342 µM.
Regarding `COc1cc(S(=O)(=O)N2C[C@H](CCC(=O)O)Oc3ccc(/C=C(\C)c4c(F)cccc4Cl)cc32)ccc1F`, the results for the inhibition at 10 µM in data set [1] and in data set [3] were 10% and -0.5%, respectively. Further, in data set [2], the EC50 is greater than 10 µM.
Taken in the same sequence, the figures for `O=C(O)CC[C@H]1CN(S(=O)(=O)c2cccc(C(F)(F)F)c2)c2cc(-c3cccc(Cl)c3)ccc2O1` were 0%, 24% and greater than 10 µM.
On to `C[C@H](C[C@H]1CN(S(=O)(=O)c2cccc(C(F)(F)F)c2)c2cc(-c3cc(F)ccc3F)ccc2O1)C(=O)O`, for which the inhibition at 10 µM was determined as 11% in data set [1] and 18% in data set [3]. The EC50 in data set [2] is greater than 10 µM.
With `O=C(O)CC[C@H]1CN(S(=O)(=O)c2cccc(C(F)(F)F)c2)c2cc(-c3ccc(Cl)cc3)ccc2O1`, the concentration in solution in data set [5] (solubility) was 15 µM (≈ 7.89 µg/mL). In addition, the figures for the inhibition at 10 µM in data set [1] and in data set [3] were -2% and 14%, respectively. The compound further had an EC50 in data set [6] of 0.027 µM. In data set [7], the hepatocyte CLint amounted to 38 µL/min/1e6 cells.
As to `O=S(=O)(c1cccc(C(F)(F)F)c1)N1C[C@H](CC2(CO)COC2)Oc2ccc(Br)cc21`, the EC50 in data set [2] was greater than 10 µM.
With `O=C(O)CC[C@H]1CN(S(=O)(=O)c2cccc(C(F)(F)F)c2)c2cc(-c3cccc(OCCO)c3)ccc2O1`, the concentration for a half-maximal effect (EC50) in data set [4], in data set [2] and in data set [6] was greater than 10 µM throughout.
With `O=C(O)[C@@H](O)CC[C@H]1CN(S(=O)(=O)c2cccc(C(F)(F)F)c2)c2cc(-c3cc(F)ccc3F)ccc2O1`, the concentration giving a half-maximal response (EC50) in data set [4] was 0.501 µM; in data set [2], greater than 10 µM; in data set [6], 0.013 µM. For the same compound, the hepatocyte CLint in data set [7] was 18 µL/min/1e6 cells.
In data set [5], `COc1cccc(-c2ccc3c(c2)N(S(=O)(=O)c2cccc(C(F)(F)F)c2)C[C@H](CCC(=O)O)O3)c1` yielded a solubility of 280 µM (≈ 146 µg/mL). In addition, the inhibition at 10 µM in data set [1] was 2%; in data set [3], 19%. Moreover, the EC50 in data set [2] is greater than 10 µM. Also, the hepatocyte CLint in data set [7] worked out at 44 µL/min/1e6 cells.
